Assay results: ChEMBL document CHEMBL1145633, “Inhibitors of the tyrosine kinase EphB4. Part 1: Structure-based design and optimization of a series of 2,4-bis-anilinopyrimidines” (Bioorg Med Chem Lett, 2008)

Target: T1, Ephrin type-B receptor 4 (Homo sapiens, UniProt P54760)
T1 sequence (P54760 whole entry): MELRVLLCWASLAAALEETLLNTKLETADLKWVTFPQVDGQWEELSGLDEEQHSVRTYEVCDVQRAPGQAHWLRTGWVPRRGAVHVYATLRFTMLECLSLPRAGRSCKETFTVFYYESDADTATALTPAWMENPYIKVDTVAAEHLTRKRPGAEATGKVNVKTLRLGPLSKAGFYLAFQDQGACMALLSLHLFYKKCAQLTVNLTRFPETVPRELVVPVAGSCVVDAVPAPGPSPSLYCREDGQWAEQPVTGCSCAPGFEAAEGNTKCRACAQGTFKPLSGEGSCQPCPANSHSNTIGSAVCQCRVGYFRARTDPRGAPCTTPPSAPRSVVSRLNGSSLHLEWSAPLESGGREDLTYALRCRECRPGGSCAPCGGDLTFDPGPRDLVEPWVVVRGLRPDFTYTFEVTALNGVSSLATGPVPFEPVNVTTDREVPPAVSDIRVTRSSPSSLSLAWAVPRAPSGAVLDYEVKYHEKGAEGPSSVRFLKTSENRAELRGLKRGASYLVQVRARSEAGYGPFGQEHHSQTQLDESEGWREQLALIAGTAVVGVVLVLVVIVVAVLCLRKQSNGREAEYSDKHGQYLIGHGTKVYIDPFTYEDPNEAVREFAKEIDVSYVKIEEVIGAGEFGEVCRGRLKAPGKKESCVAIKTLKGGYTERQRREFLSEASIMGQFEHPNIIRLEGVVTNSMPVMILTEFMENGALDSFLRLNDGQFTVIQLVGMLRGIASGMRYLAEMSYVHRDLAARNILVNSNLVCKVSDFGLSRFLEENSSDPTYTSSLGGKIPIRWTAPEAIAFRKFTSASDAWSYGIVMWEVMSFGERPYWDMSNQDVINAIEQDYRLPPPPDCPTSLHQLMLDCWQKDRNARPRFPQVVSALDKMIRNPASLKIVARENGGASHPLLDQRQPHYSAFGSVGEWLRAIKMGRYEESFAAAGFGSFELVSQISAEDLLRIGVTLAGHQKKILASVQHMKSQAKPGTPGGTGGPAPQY
Experiment: Inhibition of EphB4

IC50 [µM]	SMILES
35.5	NS(=O)(=O)c1ccccc1Nc1nccc(Nc2c(Cl)ccc3c2OCO3)n1
20.5	N#Cc1ccccc1Nc1nccc(Nc2c(Cl)ccc3c2OCO3)n1
14	Cc1ccccc1Nc1nccc(Nc2c(Cl)ccc3c2OCO3)n1
41	CS(=O)(=O)c1ccccc1Nc1nccc(Nc2c(Cl)ccc3c2OCO3)n1
3.88	COc1ccccc1Nc1nccc(Nc2c(Cl)ccc3c2OCO3)n1
0.64	COc1cccc(Nc2nccc(Nc3c(Cl)ccc4c3OCO4)n2)c1
11.3	Clc1ccccc1Nc1nccc(Nc2c(Cl)ccc3c2OCO3)n1

The next lines start with the compound.

SMILES	IC50 [µM]
Cc1cccc(Nc2nccc(Nc3c(Cl)ccc4c3OCO4)n2)c1	0.46
Clc1ccc(Nc2nccc(Nc3c(Cl)ccc4c3OCO4)n2)cc1	6
N#Cc1ccc(Nc2nccc(Nc3c(Cl)ccc4c3OCO4)n2)cc1	1.25
COc1ccc(Nc2nccc(Nc3c(Cl)ccc4c3OCO4)n2)cc1	1.94
N#Cc1cccc(Nc2nccc(Nc3c(Cl)ccc4c3OCO4)n2)c1	0.55
COc1cc(Nc2cc(Nc3c(Cl)ccc4c3OCO4)ncn2)cc(OC)c1OC	2.54
